Measured values taken from patent US20260231914A1, “BRAIN-DERIVED NEUROTROPHIC FACTOR-NANO LUCIFERASE TRANSGENIC RODENTS AND METHODS OF USE THEREOF” (University of Florida Research Foundation, Incorporated, priority 2023, published 2026).
Entries after “also recorded” stand apart in the source; their conditions may differ. Structures can show the parent of a compound that is named as a salt.

Columns and labels:
BDNF-NLuc [1] = assay: LOPAC library screening, NLuc activity in cultured Bdnf^NLuc/+ neurons (HTS); type: cell-based, mouse; conditions: 24 hours; for hit status in repeat screening with 4 different plates of cultured neurons (FIG. 5D): different batch of neurons; for hit: NLuc activity in neurons increased to more than 3× standard deviations over the mean: LOPAC compounds 10 μM, DIV7 neurons, FIGS. 5A-5D
Protocol: We tested the scalability of the Bdnf^NLuc/+ phenotypic assay by screening the 1280-compound Library of Pharmacologically Active Compounds (LOPAC). We dissected out cortices and hippocampi of 8 Bdnf^NLuc/+ embryos at E18.5 from 2 timed pregnant mice, prepared a suspension of dissociated neurons (10,000 cells/80 μl), transferred 40 ml of the suspension into each of eight 50-ml Falcon centrifuge tubes, used the liquid handling device to plate cells from each aliquot of 40-ml cell suspension onto a 384-well plate (80 μl/well), and cultured neurons.
Using 2 sets of 4 plates each of DIV7 neuronal cultures, we removed 20 μl of medium from each well and then added each LOPAC compound in 20 μl of fresh medium to a well to reach a final concentration of 10 μM. LOPAC compounds (320) were added to wells in the middle 20 columns of each plate, while the first 2 and last 2 columns were used for vehicle controls and positive controls. After 24 hours of incubation, we inverted plates to dump culture medium and then measured NLuc activity in neurons. The NLuc activity in each well is normalized to the average of NLuc activities in 1280 compound-containing wells. […] Compounds that increased the NLuc activity to more than 3× standard deviations (3×SDs) over the mean were considered a hit, and in this case, there are 7 hits in the first set of plates (FIG. 5A) and 10 hits in the second set of plates (FIG. 5B), 7 of which are shared. When the average of duplicate assays for each compound is plotted, we identify the same hits from the second set of plates, with the exception of hit 8 (FIG. 5C). To test the repeatability of the assay in different batches of cultured neurons, we repeated the screening with 4 different plates of cultured neurons.
(§1) Compound treatment and LOPAC library screening. Compound treatment or library screening in primary cultures of Bdnf^NLuc/+ mouse neurons on day 7 in vitro (DIV7) was performed by replacing one-quarter of the culture medium with equal volume of compound-containing medium to yield the desired final concentration for each compound. For the library of pharmacologically active compounds (LOPAC, Millipore), compounds in the original source plates were first dosed using a pintool into 384-well plates containing feeding medium to create a secondary source plate with compounds at 40 μM using the Beckman Coulter's Biomek NXP automated liquid handler (Beckman). 1.6% DMSO and 40 μM (+)-Bay K8644 (Sigma) were added to the first two and the last two columns of the secondary source plate as vehicle and positive control, respectively. Compounds in the secondary source plates were then added to culture neurons in the 384-well plates using a Versette liquid handler. Neurons were treated with compounds for 24 hours in a humidified incubator set to 37° C. and 5% CO2. Luciferase activity was detected the next day using Nano-Glo Luciferase Assay System (Promega) according to the manufacturer's instruction. Luminescence intensity was measured using a microplate reader (FLUOstar Omega, BMG LABTECH) at 460 nm.

BDNF-NLuc [2] = assay: NLuc activity (BDNF-NLuc levels) in cultured Bdnf^NLuc/+ neurons and media after compound treatment; type: cell-based, mouse
Protocol: We tested our assay for suitability for HTS by using two positive controls. […] The assay produces a good Z′ for both 10 mM KCl and 10 μM DM (FIGS. 4A-4C) (Zhang et al., 1999). To measure NLuc activities in cells, we can simply invert a plate to dump culture medium and then add the Promega Nano-Glo mix, whereas we must transfer a certain amount of culture medium to a new plate and then add the Promega Nano-Glo mix to measure NLuc activities in media.
Primary cortical/hippocampal cell culture and maintenance. Brains of E18.5 Bdnf^NLuc/+ embryos were collected and placed in ice-cold Ca^2+ and Mg^2+ free Hanks' balanced salt solution (HBSS) supplemented with Penicillin-Streptomycin (Pen/Strep, 50 U/mL, Gibco), 25 mM D-glucose, 1 mM pyruvate, and 20 mM HEPES. Cortices and hippocampi were isolated and digested with papain (~12 U/mL, Worthington) at 37° C. for 20 min. Brain tissues were washed with media containing Neurobasal (Gibco), 4% fetal bovine serum (FBS, HyClone), and Pen/Strep. The tissue was gently triturated and allowed to settle, and the supernatant was filtered through a 40 μm cell strainer. Cells were centrifuged at 420×g for 4 min and resuspended in plating media [Neurobasal, 2% FBS, 2% B27 (Gibco), 2 mM GlutaMAX (Gibco), and Pen/Strep]. 1.0×10^4 or 4.5×10^4 cells were plated onto white Greiner μClear 384-well plate (80 μl/well) or PDL-coated 96-well plate (200 μl/well), respectively. Sixteen hours after plating, 75% of the plating media was replaced by feeding media [Neurobasal, 2% B27, 2 mM GlutaMAX, and Pen/Strep] supplemented with 16 μM 5-fluoro-2′-deoxyuridine (FUdR) to prevent overgrowth of non-neuronal cells. Plating and media changes were performed using a Versette liquid handler (Thermo Fisher Scientific) or an 8-channel pipette for the 384-well and 96-well plates, respectively. Cells were maintained at 37° C. and 5% CO2 incubator.
as §1

Bdnf gene expression = conditions: cited from earlier work; for Bdnf gene expression: literature reports, no concentration given
Bdnf mRNA = assay: qRT-PCR of Bdnf mRNA and Bdnf mRNA variants in DIV7 Bdnf^NLuc/+ neurons; type: cell-based, mouse; conditions: 5 μM, 24 hours
Protocol: We treated DIV7 Bdnf^NLuc/+ neurons in a 24-well plate with 5 μM GR127935-HCl for 24 hours, isolated total RNA from cultured cells in each well, and ran quantitative RT-PCR (qRT-PCR) to determine levels of total Bdnf mRNA (coding), as well as four major Bdnf mRNA variants (exon 1, exon 2, exon 4, and exon 6).
qRT-PCR validation of HTS hit. DIV7 Bdnf^NLuc/+ neurons were treated in a 24-well plate with 5 μM GR127935-HCl for 24 hours, after which total RNA was isolated from cultured cells in each well and used to perform quantitative RT-PCR (qRT-PCR) to determine the levels of total Bdnf mRNA (coding), as well as four major Bdnf mRNA variants (exon 1, exon 2, exon 4, and exon 6). Levels of Bdnf mRNA variants were quantified using qRT-PCR with 18S rRNA as the internal control.

[3] = test system: protein transport from the ER to the Golgi complex; conditions: Helms and Rothman, 1992; cited from earlier work
[4] = KCl 10 mM added DIV7, measured DIV8 (24 hours)
[5] = DM 2-10 μM added DIV7, measured DIV8, listed as DM

For CCCc1c(-c2ccc(O)cc2)nn(-c2ccc(O)cc2)c1-c1ccc(O)cc1 [1,3,5-Tris(4-hydroxyphenyl)-4-propyl-1H-pyrazole], the “hit status in repeat screening with 4 different plates of cultured neurons (FIG. 5D)” value (BDNF-NLuc [1]; 10 μM) was “rediscovered”, the “hit: NLuc activity in neurons increased to more than 3× standard deviations over the mean” value (BDNF-NLuc [1]) was “above dotted line” and the “hit: NLuc activity in neurons increased to more than 3× standard deviations over the mean” value (BDNF-NLuc [1]; listed as PPT) was “hits”.
For COC(=O)C1=C(C)NC(C)=C([N+](=O)[O-])C1c1ccccc1C(F)(F)F (stereo not shown) [Bay K8644], the “hit status in repeat screening with 4 different plates of cultured neurons (FIG. 5D)” value (BDNF-NLuc [1]; 10 μM) was “rediscovered”, the “hit: NLuc activity in neurons increased to more than 3× standard deviations over the mean” value (BDNF-NLuc [1]) was “hits and above dotted line” and the “BDNF levels (NLuc activity)” value (BDNF-NLuc [2]; Bay K8644 10 μM, DIV7, 24 hours, 3 batches of cultured neurons) was “increased BDNF levels”. The Bdnf gene expression (Bdnf gene expression) was “stimulates Bdnf gene expression”.
With COc1ccc(NC(=O)c2ccc(-c3ccc(-c4noc(C)n4)cc3C)cc2)cc1N1CCN(C)CC1 [GR127935-HCl] the “hit status in repeat screening with 4 different plates of cultured neurons (FIG. 5D)” value (BDNF-NLuc [1]; 10 μM) was “rediscovered”, the “hit: NLuc activity in neurons increased to more than 3× standard deviations over the mean” value (BDNF-NLuc [1]) was “above dotted line” and the “hit: NLuc activity in neurons increased to more than 3× standard deviations over the mean” value (BDNF-NLuc [1]; listed as GR127935 hydrochloride hydrate) was “hits”. For the same compound, the “Bdnf mRNA variant exon 1” value (Bdnf mRNA) was “stimulating transcription”, the “Bdnf mRNA variant exon 2” value (Bdnf mRNA) was “stimulating transcription” and the “Bdnf mRNA variant exon 4” value (Bdnf mRNA) was “stimulating transcription”. The “total Bdnf mRNA (coding) levels” value (Bdnf mRNA; 18S rRNA internal control) was “elevated Bdnf mRNA levels”.
In the case of [Cl-].[K+] [KCl], the “levels of BDNF-NLuc in media (NLuc activity)” value (BDNF-NLuc [2]; [4]) is listed as “elevated; also recorded: increased”, the “levels of BDNF-NLuc in neurons (NLuc activity)” value (BDNF-NLuc [2]; [4]) is listed as “elevated; also recorded: increased” and the “Bdnf gene expression in cultured neurons” value (Bdnf gene expression; KCl 50 mM for 90 min (Ghosh et al., 1994; Tao et al., 2002)) is listed as “increases Bdnf gene expression”. The Bdnf gene expression (Bdnf gene expression) was “stimulates Bdnf gene expression”.
For C#CCN1C(C)=C(C(=O)OC)C(c2cccc([N+](=O)[O-])c2)C(C(=O)OCC)=C1C (stereo not shown) [N-propargyl nitrendipine], the “hit: NLuc activity in neurons increased to more than 3× standard deviations over the mean” value (BDNF-NLuc [1]) was “hits and above dotted line”.
For CCC(C)N(C)C(=O)c1cc2ccccc2c(-c2ccccc2Cl)n1 (stereo not shown) [PK11195], the “hit: NLuc activity in neurons increased to more than 3× standard deviations over the mean” value (BDNF-NLuc [1]) was “above dotted line”.
For C[C@H]1CCC/C=C/[C@@H]2C[C@H](O)C[C@H]2[C@H](O)/C=C/C(=O)O1 [brefeldin A], the “protein transport from the ER to the Golgi complex” value [3] is listed as “inhibit protein transport from the ER to the Golgi complex”, the “hit status in repeat screening with 4 different plates of cultured neurons (FIG. 5D)” value (BDNF-NLuc [1]; 10 μM) is listed as “rediscovered” and the “hit: NLuc activity in neurons increased to more than 3× standard deviations over the mean” value (BDNF-NLuc [1]) is listed as “hits and above dotted line”.
In the case of CC1(C)[C@H](C(=O)O[C@H](C#N)c2cccc(Oc3ccccc3)c2)[C@@H]1C=C(Br)Br [deltamethrin], the “levels of BDNF-NLuc in media (NLuc activity)” value (BDNF-NLuc [2]; [5]) is listed as “stimulated BDNF production; also recorded: increased”, the “levels of BDNF-NLuc in neurons (NLuc activity)” value (BDNF-NLuc [2]; [5]) is listed as “stimulated BDNF production; also recorded: increased” and the Bdnf gene expression (Bdnf gene expression) is listed as “stimulate Bdnf gene expression”.
For COc1ccc(-c2ccc(=N)n(CCCC(=O)O)n2)cc1 [gabazine], the “hit status on the average of duplicate assays (FIG. 5C)” value (BDNF-NLuc [1]; 10 μM, average of 2 sets of plates) was “exception” and the “hit: NLuc activity in neurons increased to more than 3× standard deviations over the mean” value (BDNF-NLuc [1]) was “above dotted line”.
In the case of CCCCCCCCCCCCCC(=O)O[C@@H]1[C@@H](C)[C@@]2(O)[C@@H](C=C(CO)C[C@]3(O)C(=O)C(C)=C[C@@H]23)[C@@H]2C(C)(C)[C@]12OC(C)=O [phorbol-12-myristate 13-acetate], the “hit status in repeat screening with 4 different plates of cultured neurons (FIG. 5D)” value (BDNF-NLuc [1]; 10 μM) is listed as “just under the threshold”, the “hit: NLuc activity in neurons increased to more than 3× standard deviations over the mean” value (BDNF-NLuc [1]) is listed as “hits and above dotted line” and the “effect on Bay K8644-induced Bdnf gene expression” value (Bdnf gene expression; Zafra et al., 1992) is listed as “enhance the effect of Bay K8644 on Bdnf gene expression”.
